From US8952024B2, “Herbicidal pyrimidone derivatives” (E I du Pont de Nemours and Company, priority 2009, dated 2015)

Legend:
Assay type in all cases: in vivo
[1] = system: chickweed (Stellaria media); experiment: Test B postemergence plant response
Summary of the method: (§1)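 Plants grown in peat/vermiculite medium were sprayed postemergence at 2–18 cm height (1- to 4-leaf stage). After 13–15 days in the greenhouse, response was rated visually against untreated controls on a 0–100 scale (0 no effect, 100 complete control).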

[2] = system: canarygrass (Phalaris minor); experiment: Test B postemergence plant response
Summary of the method: as §1

[3] = system: windgrass (Apera spica-venti); experiment: Test B postemergence plant response
Summary of the method: as §1

[4] = system: bermudagrass (Cynodon dactylon); experiment: Test B pre-/postemergence plant response
Summary of the method: (§2)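 Steps: sow seed in loam–sand soil and spray preemergence, or grow plants in peat-based medium to 1–4 leaves (2–18 cm) and spray postemergence; formulation is non-phytotoxic solvent plus surfactant; hold in greenhouse 13–15 days; score visually vs controls, 0 = no effect, 100 = complete control.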

[5] = system: kochia (Kochia scoparia); experiment: Test B pre-/postemergence plant response
Summary of the method: as §2

[6] = system: giant foxtail (Setaria faberii); experiment: Test B pre-/postemergence plant response
Summary of the method: as §2

[7] = system: ragweed (common ragweed, Ambrosia elatior); experiment: Test B pre-/postemergence plant response
Summary of the method: as §2

[8] = system: velvetleaf (Abutilon theophrasti); experiment: Test B pre-/postemergence plant response
Summary of the method: as §2

[9] = system: yellow nutsedge (Cyperus esculentus); experiment: Test B pre-/postemergence plant response
Summary of the method: as §2

[10] = system: downy bromegrass (Bromus tectorum); experiment: Test B pre-/postemergence plant response
Summary of the method: as §2

[11] = system: johnsongrass (Sorghum halepense); experiment: Test B pre-/postemergence plant response
Summary of the method: as §2

[12] = system: wheat (Triticum aestivum); experiment: Test B pre-/postemergence plant response
Summary of the method: as §2

[13] = system: wild oat (Avena fatua); experiment: Test B pre-/postemergence plant response
Summary of the method: as §2

[14] = system: morningglory (Ipomoea coccinea); experiment: Test B pre-/postemergence plant response
Summary of the method: as §2

[15] = system: blackgrass (Alopecurus myosuroides); experiment: Test B pre-/postemergence plant response
Summary of the method: as §2

[16] = system: soybean (Glycine max); experiment: Test B pre-/postemergence plant response
Summary of the method: as §2

[17] = system: green foxtail (Setaria viridis); experiment: Test B pre-/postemergence plant response
Summary of the method: as §2

[18] = system: cocklebur (Xanthium strumarium); experiment: Test B pre-/postemergence plant response
Summary of the method: as §2

[19] = 31 g ai/ha, postemergence, scale 0 to 100, 0 is no effect, 100 is complete control
[20] = 62 g ai/ha, postemergence, 0 is no effect, 100 is complete control, 13 to 15 days
[21] = Postemergence, 125 g ai/ha, visual rating after 13 to 15 days, scale 0 (no effect) to 100 (complete control)
[22] = Postemergence, 250 g ai/ha, scale 0 to 100 (0 no effect, 100 complete control)
[23] = 250 g ai/ha, Preemergence, 0 to 100 scale
[24] = Preemergence, 31 g ai/ha, scale 0 to 100 (0 no effect, 100 complete control)
[25] = Preemergence, 62 g ai/ha, scale 0 to 100, 0 no effect, 100 complete control
[26] = Preemergence, 125 g ai/ha, scale 0 to 100, 0 no effect, 100 complete control

Question: Which results are given for `CC(C)Cc1ncc(C(=O)C2=C(O)CCCC2=O)c(=O)n1-c1ccccc1` [Compound 68]?
Answer: Plant response rating, Chickweed [1, 19]: 85; Chickweed plant response rating (0 to 100 scale) [1, 20]: 90; Plant response rating, Chickweed [1, 21]: 98; Plant response rating, Chickweed [1, 22]: 100; Plant response rating, Canarygrass [2, 19]: 0; Canarygrass plant response rating (0 to 100 scale) [2, 20]: 0; Plant response rating, Canarygrass [2, 21]: 35; Plant response rating, Canarygrass [2, 22]: 35; Plant response rating, Windgrass [3, 19]: 40; Windgrass plant response rating (0 to 100 scale) [3, 20]: 50; Plant response rating, Windgrass [3, 21]: 65; Plant response rating, Windgrass [3, 22]: 85; Plant response rating, Bermudagrass [4, 19]: 75; Bermudagrass plant response rating (0 to 100 scale) [4, 20]: 75; Plant response rating, Bermudagrass [4, 23]: 100; Plant response rating, Bermudagrass [4, 21]: 95; Plant response rating, Bermudagrass [4, 22]: 98; Plant response rating, Bermudagrass [4, 24]: 95; Plant response rating, Bermudagrass [4, 25]: 98; Plant response rating, Bermudagrass [4, 26]: 98; Plant response rating, Kochia [5, 19]: 70; Kochia plant response rating (0 to 100 scale) [5, 20]: 90; Plant response rating, Kochia [5, 23]: 95; Plant response rating, Kochia [5, 21]: 95; Plant response rating, Kochia [5, 22]: 98; Plant response rating, Kochia [5, 24]: 80; Plant response rating, Kochia [5, 25]: 80; Plant response rating, Kochia [5, 26]: 95; Plant response rating, Foxtail, Giant [6, 19]: 65; Foxtail, Giant plant response rating (0 to 100 scale) [6, 20]: 80; Plant response rating, Foxtail, Giant [6, 23]: 75; Plant response rating, Foxtail, Giant [6, 21]: 85; Plant response rating, Foxtail, Giant [6, 22]: 90; Plant response rating, Foxtail, Giant [6, 24]: 0; Plant response rating, Foxtail, Giant [6, 25]: 20; Plant response rating, Foxtail, Giant [6, 26]: 55; Plant response rating, Ragweed [7, 19]: 75; Ragweed plant response rating (0 to 100 scale) [7, 20]: 80; Plant response rating, Ragweed [7, 21]: 80; Plant response rating, Ragweed [7, 22]: 95; Plant response rating, Ragweed [7, 24]: 10; Plant response rating, Ragweed [7, 25]: 75; Plant response rating, Ragweed [7, 26]: 80; Plant response rating, Velvetleaf [8, 19]: 95; Velvetleaf plant response rating (0 to 100 scale) [8, 20]: 100; Plant response rating, Velvetleaf [8, 21]: 100; Plant response rating, Velvetleaf [8, 22]: 100; Plant response rating, Velvetleaf [8, 24]: 95; Plant response rating, Velvetleaf [8, 25]: 100; Plant response rating, Velvetleaf [8, 26]: 100; Plant response rating, Nutsedge, Yellow [9, 19]: 0; Nutsedge, Yellow plant response rating (0 to 100 scale) [9, 20]: 10; Plant response rating, Nutsedge, Yellow [9, 21]: 70; Plant response rating, Nutsedge, Yellow [9, 22]: 80; Plant response rating, Nutsedge, Yellow [9, 24]: 0; Plant response rating, Nutsedge, Yellow [9, 25]: 70; Plant response rating, Nutsedge, Yellow [9, 26]: 85; Plant response rating, Bromegrass, Downy [10, 19]: 5; Bromegrass, Downy plant response rating (0 to 100 scale) [10, 20]: 5; Plant response rating, Bromegrass, Downy [10, 23]: 5; Plant response rating, Bromegrass, Downy [10, 21]: 25; Plant response rating, Bromegrass, Downy [10, 22]: 40; Plant response rating, Bromegrass, Downy [10, 24]: 0; Plant response rating, Bromegrass, Downy [10, 25]: 0; Plant response rating, Bromegrass, Downy [10, 26]: 0; Plant response rating, Johnsongrass [11, 19]: 10; Johnsongrass plant response rating (0 to 100 scale) [11, 20]: 10; Plant response rating, Johnsongrass [11, 23]: 95; Plant response rating, Johnsongrass [11, 21]: 75; Plant response rating, Johnsongrass [11, 22]: 100; Plant response rating, Johnsongrass [11, 24]: 0; Plant response rating, Johnsongrass [11, 25]: 5; Plant response rating, Johnsongrass [11, 26]: 75; Plant response rating, Wheat [12, 19]: 5; Wheat plant response rating (0 to 100 scale) [12, 20]: 5; Plant response rating, Wheat [12, 21]: 5; Plant response rating, Wheat [12, 22]: 10; Plant response rating, Wheat [12, 24]: 0; Plant response rating, Wheat [12, 25]: 0; Plant response rating, Wheat [12, 26]: 0; Plant response rating, Oat, Wild [13, 19]: 5; Oat, Wild plant response rating (0 to 100 scale) [13, 20]: 20; Plant response rating, Oat, Wild [13, 21]: 50; Plant response rating, Oat, Wild [13, 22]: 70; Plant response rating, Oat, Wild [13, 24]: 0; Plant response rating, Oat, Wild [13, 25]: 0; Plant response rating, Oat, Wild [13, 26]: 0; Plant response rating, Morningglory [14, 19]: 80; Morningglory plant response rating (0 to 100 scale) [14, 20]: 85; Plant response rating, Morningglory [14, 21]: 98; Plant response rating, Morningglory [14, 22]: 100; Plant response rating, Morningglory [14, 24]: 0; Plant response rating, Morningglory [14, 25]: 55; Plant response rating, Morningglory [14, 26]: 65; Plant response rating, Blackgrass [15, 19]: 0; Blackgrass plant response rating (0 to 100 scale) [15, 20]: 0; Plant response rating, Blackgrass [15, 23]: 5; Plant response rating, Blackgrass [15, 21]: 0; Plant response rating, Blackgrass [15, 22]: 20; Plant response rating, Blackgrass [15, 24]: 0; Plant response rating, Blackgrass [15, 25]: 0; Plant response rating, Blackgrass [15, 26]: 0; Plant response rating, Soybean [16, 19]: 80; Soybean plant response rating (0 to 100 scale) [16, 20]: 95; Plant response rating, Soybean [16, 21]: 98; Plant response rating, Soybean [16, 22]: 98; Plant response rating, Foxtail, Green [17, 19]: 40; Foxtail, Green plant response rating (0 to 100 scale) [17, 20]: 85; Plant response rating, Foxtail, Green [17, 23]: 85; Plant response rating, Foxtail, Green [17, 21]: 85; Plant response rating, Foxtail, Green [17, 22]: 95; Plant response rating, Foxtail, Green [17, 24]: 0; Plant response rating, Foxtail, Green [17, 25]: 5; Plant response rating, Foxtail, Green [17, 26]: 25; Plant response rating, Cocklebur [18, 19]: 25; Cocklebur plant response rating (0 to 100 scale) [18, 20]: 75; Plant response rating, Cocklebur [18, 23]: 80; Plant response rating, Cocklebur [18, 21]: 90; Plant response rating, Cocklebur [18, 22]: 90; Plant response rating, Cocklebur [18, 24]: 0; Plant response rating, Cocklebur [18, 25]: 10
